Results on three molecules are retold here after EP0019937B1, “A method for producing alcohol oxidase, alcohol oxidase, enzyme preparation and a method for determining the concentration of a compound in an alcohol-containing sample” (PHILLIPS PETROLEUM COMPANY, priority 1979, dated 1980).

Series [1] concerns the target T1, alcohol oxidase from Pichia pastoris (Komagataella phaffii, UniProt P04842).
T1 construct: preparation and isolation of pure crystalline alcohol oxidase from Pichia pastoris; endogenous in cells; homogenate supernatant dialysed to give crystalline enzyme
T1 sequence (P04842 1-663): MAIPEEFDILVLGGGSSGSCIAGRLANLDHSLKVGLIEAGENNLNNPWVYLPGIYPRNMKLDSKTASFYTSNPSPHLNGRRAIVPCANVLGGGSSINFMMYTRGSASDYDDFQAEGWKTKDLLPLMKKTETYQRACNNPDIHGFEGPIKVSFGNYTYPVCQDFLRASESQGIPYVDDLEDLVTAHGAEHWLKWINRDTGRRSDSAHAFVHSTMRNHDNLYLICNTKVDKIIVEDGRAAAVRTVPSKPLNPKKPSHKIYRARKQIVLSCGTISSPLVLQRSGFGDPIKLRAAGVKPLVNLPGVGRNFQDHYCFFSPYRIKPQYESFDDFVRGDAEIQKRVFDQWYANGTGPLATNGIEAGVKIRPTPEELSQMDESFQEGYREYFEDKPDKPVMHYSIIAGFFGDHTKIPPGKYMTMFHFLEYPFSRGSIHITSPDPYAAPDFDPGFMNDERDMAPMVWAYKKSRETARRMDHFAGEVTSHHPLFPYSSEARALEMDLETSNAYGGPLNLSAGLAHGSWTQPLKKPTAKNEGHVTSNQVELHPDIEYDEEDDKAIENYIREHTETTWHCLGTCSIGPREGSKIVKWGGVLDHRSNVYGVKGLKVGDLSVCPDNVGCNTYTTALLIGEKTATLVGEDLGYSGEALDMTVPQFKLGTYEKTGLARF
Put plainly: Characteristics of the Pichia enzyme (Km, inhibitors, substrate reactivity). It counts as biochemical.

Substrate in series [2]: CO
Put plainly: purified protein, by the assay type. Particulars: other: apparent Michaelis constant; pH 6.5.

One may read the Km as the concentration of substrate that gives half-maximal velocity.

For the molecule `CO` [Methanol], the Km in series [1] (read-out: Km for methanol, apparent Michaelis constant) was determined as 4 mM. Take `CC=O` [acetaldehyde]: the “reactivity of the alcohol oxidase toward substrate” value in series [1] was “not reactive”.

B1: alcohol oxidase from Pichia pastoris (Komagataella phaffii GS115) (protein)
chain: MAIPEEFDILVLGGGSSGSCIAGRLANLDHSLKVGLIEAGENNLNNPWVYLPGIYPRNMKLDSKTASFYTSNPSPHLNGRRAIVPCANVLGGGSSINFMMYTRGSASDYDDFQAEGWKTKDLLPLMKKTETYQRACNNPDIHGFEGPIKVSFGNYTYPVCQDFLRASESQGIPYVDDLEDLVTAHGAEHWLKWINRDTGRRSDSAHAFVHSTMRNHDNLYLICNTKVDKIIVEDGRAAAVRTVPSKPLNPKKPSHKIYRARKQIVLSCGTISSPLVLQRSGFGDPIKLRAAGVKPLVNLPGVGRNFQDHYCFFSPYRIKPQYESFDDFVRGDAEIQKRVFDQWYANGTGPLATNGIEAGVKIRPTPEELSQMDESFQEGYREYFEDKPDKPVMHYSIIAGFFGDHTKIPPGKYMTMFHFLEYPFSRGSIHITSPDPYAAPDFDPGFMNDERDMAPMVWAYKKSRETARRMDHFAGEVTSHHPLFPYSSEARALEMDLETSNAYGGPLNLSAGLAHGSWTQPLKKPTAKNEGHVTSNQVELHPDIEYDEEDDKAIENYIREHTETTWHCLGTCSIGPREGSKIVKWGGVLDHRSNVYGVKGLKVGDLSVCPDNVGCNTYTTALLIGEKTATLVGEDLGYSGEALDMTVPQFKLGTYEKTGLARF
As for B1, the Km in series [2] turned out to be 4 mM.
